One data set concerns the target chymotrypsin (Bos taurus, UniProt P00766). Nature of the data set: Chymotrypsin inhibition, BTPNA substrate, absorbance at 405 nm (Examples 9, 13-19, 23, 24, 27, 30, 31). The settings on record: for Inhibition %: Example 15.
The nature of data set [1]: GLP-1 peptide formulations with SNAC and trace elements: dissolution in aqua purificata, visual (Example 4). The class given is physicochemical. The settings on record: liraglutide 1.8 mg/ml, SNAC 20 mg, trace element 2 mg, disodium phosphate dihydrate, 2 ml aqua purificata. As for the experimental part: Compositions comprising a GLP-1 peptide, a complexing agent (disodium phosphate dihydrate), the absorption enhancer N-(8-[2-hydroxybenzoyl]amino)caprylic acid (SNAC) and various trace elements or metal salts were prepared and dissolved in 2 ml of aqua purificata and examined visually.

In another data set the target is T1, trypsin (Bos taurus, UniProt P00760).
T1 construct: gene PRSS1
T1 sequence (P00760 24-246): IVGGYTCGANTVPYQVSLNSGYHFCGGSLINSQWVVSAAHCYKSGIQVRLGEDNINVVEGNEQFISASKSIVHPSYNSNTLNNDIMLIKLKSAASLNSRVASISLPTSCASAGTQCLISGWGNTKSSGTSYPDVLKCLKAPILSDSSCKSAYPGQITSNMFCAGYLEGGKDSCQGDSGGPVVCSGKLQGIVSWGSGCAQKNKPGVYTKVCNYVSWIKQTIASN
Nature of the data set: Trypsin inhibition, BAPNA substrate, absorbance at 405 nm (Examples 10-12, 20-22, 25, 26, 28, 29, 33). Conditions: for inhibition of trypsin: 50 mM TRIS pH 7. In kind it is biochemical. As for the experimental part:
100 mg/ml copper gluconate in 50 mM TRIS pH 7; pH was adjusted to pH 7; stock solution was diluted to the following concentrations: 50 mg/ml, 25 mg/ml, 12.5 mg/ml, 5 mg/ml, 6.25 mg/ml, 3.125 mg/ml, 2.5 mg/ml, 1.25 mg/ml, 0.625 mg/ml, 0.313 mg/ml, 0.156 mg/ml and 0.078 mg/ml
0.5 mg/mL Benzoyl-Arginine p-nitroanilide (BAPNA)
100 μl 50 mM TRIS pH 7+50 μL Trypsin Stock+50 μL BAPNA Stock
100 μl Copper solution (according to the above described dilutions)+50 μL Trypsin Stock+50 μL BAPNA Stock
Absorption was measured after 15 minutes at 405 nm.
Values were corrected (subtraction of blank).
100 mg/ml Zinc bisglycinate in 50 mM TRIS pH 7; pH was adjusted to pH 7; stock solution was diluted to the following concentrations: 50 mg/ml and 25 mg/ml
100 μl Zinc solution (according to the above described dilutions)+50 μL Trypsin Stock+50 μL BAPNA Stock
10 mg/ml iron gluconate in 50 mM TRIS pH 7; pH was adjusted to pH 7; stock solution was diluted to the following concentrations: 5 mg/ml, 2.5 mg/ml, 1.25 mg/ml and 0.625 mg/ml
100 μl Iron solution (according to the above described dilutions)+50 μL Trypsin Stock+50 μL BAPNA Stock
Absorption was measured directly at 405 nm.
Benzoyl-Arginine p-nitroanilide (BAPNA): 0.5 mg/ml in 50 mM TRIS pH 7 (centrifuged and supernatant used as stock solution)
Trypsin: […] in 50 mM TRIS pH 7
1 mg/mL iron gluconate in 10 mM TRIS pH 7 (iron content=12%), 0.12 mg/ml iron
12 mg/mL copper lysinate in 10 mM TRIS pH 7 (copper content=3%), 0.12 mg/ml copper
100 μl of the respective salt solution+50 μL Trypsin Stock+50 μL BAPNA Stock
Experiments were carried out at pH 7, 50 mM TRIS.
0.025 mg/ml Trypsin, 0.125 mg/mL Benzoyl-Arginine p-nitroanilide (BAPNA.) Lauryl glutamate:
0.25 mg/ml; copper content (as copper(II)gluconate): 0.035 mg/ml.
Adsorption measurement at 405 nm
0.025 mg/ml Trypsin, 0.125 mg/mL Benzoyl-Arginine p-nitroanilide (BAPNA). lauryl-glutamate:
Absorption measurement at 405 nm
0.025 mg/ml Trypsin, 0.125 mg/mL Benzoyl-Arginine p-nitroanilide (BAPNA). Capryl-glucoside:
Copper sulfate stock solution: 1 mg/ml of copper sulfate was dissolved in 50 mM TRIS pH 7. Copper tartrate stock solution: 1 mg/ml of copper tartrate was dispersed in 50 mM TRIS pH 7 and moderately stirred for 5 minutes. The suspension was then centrifuged at 3′000 rpm for 10 minutes, to separate the insoluble salt. The supernatant was used as stock solution for the experiments.
Zinc orotate stock solution: 1 mg/ml of zinc orotate was dispersed in 50 mM TRIS pH 7 and moderately stirred for 5 minutes. The suspension was then centrifuged at 3′000 rpm for 10 minutes, to separate the insoluble salt. The supernatant was used as stock solution for the experiments.
100 μL of the respective salt solution stock+50 μL Trypsin Stock+50 μL BAPNA Stock
Control: 100 μL of 50 mM TRIS pH 7+50 μL Trypsin Stock+50 μL BAPNA Stock
Final concentrations of protease and substrate were 0.025 mg/ml Trypsin, 0.125 mg/mL
50 μl manganese sulfate+50 μl copper gluconate+50 μL Trypsin Stock+50 μL BAPNA Stock
Absorption measurement at 405 nm; final pH in all solutions was monitored to be pH 7.
3 mg/ml SiO2—suspended in 50 mM TRIS pH 7 and centrifuged; supernatant was used for experiments.
50 μl SiO2+50 μl 50 mM TRIS pH 7+50 μL Trypsin Stock+50 μL BAPNA Stock
50 μl copper gluconate+50 μl SiO2+50 μL Trypsin Stock+50 μL BAPNA Stock
50 μl iron gluconate+50 μl SiO2+50 μL Trypsin Stock+50 μL BAPNA Stock
120 μl 50 mM TRIS pH 7+50 μL Trypsin Stock+50 μL BAPNA Stock
80 μl copper gluconate+40 μl 50 mM TRIS pH 7+50 μL Trypsin Stock+50 μL BAPNA Stock
40 μl copper gluconate+80 μl 50 mM TRIS pH 7+50 μL Trypsin Stock+50 μL BAPNA Stock
80 μl iron gluconate+40 μl 50 mM TRIS pH 7+50 μL Trypsin Stock+50 μL BAPNA Stock
40 μl iron gluconate+80 μl 50 mM TRIS pH 7+50 μL Trypsin Stock+50 μL BAPNA Stock
80 μl iron gluconate+40 μl copper gluconate+50 μL Trypsin Stock+50 μL BAPNA Stock

Data set [2] is described as follows: Pharmacokinetic profiles of PTH(1-34) formulations after intestinal administration (Example 3). In kind it is in vivo, Sprague Dawley rats. The settings on record: relative to PTH(1-34) s.c. The method, then: Teriparatide (PTH1-34) was dosed subcutaneously in volume of 1 ml/kg (final concentration 0.024 mg/ml teriparatide) to anaesthetized rats. TER001 and TER002 were dosed into ileum in volume of 0.4 mi/kg (final concentration 0.24 mg/ml teriparatide) to anaesthetized rats. […] The teriparatide plasma concentrations were determined using commercial pTH (1-34) human ELISA kit (Biovendor, EU, cat. number RS-1163.0001).

Data set [3] can be described thus: Pharmacokinetic profile of octreotide formulations after administration into proximal jejunum (Example 8). As for the experimental part:
The formulations OCT002, OCT003 and OCT004 were dissolved in an octreotide stock solution 5-10 min prior to dosing into proximal jejunum in volume of 0.4 ml/kg to anaesthetized rats. The final octreotide concentration of each formulation was 0.36 mg/kg. Blood was taken from tail vessels at the time points 0, 10, 20, 40, 60, 90 and 120 min after dosing. The octreotide plasma concentration was determined using commercial octreotide kit (Peninsula Laboratories International, Inc., USA, cat.number S-1342.0001).

The conditions of data set [4]: study comparing aprotinin with aminocaproic acid; cited from earlier work.
Where [5] appears, read: Sprague Dawley, rat, in vivo, sc.
Setting [6] is: Example 20, solutions 1 mg/mL iron gluconate, 1 mg/mL copper gluconate, 12 mg/mL copper lysinate, FIG. 11.
The mark [7] stands for this setting: Example 33, stocks 1 mg/ml copper(II)gluconate, 1 mg/ml iron(II)gluconate, 40 or 80 μl, pH 7, FIG. 23.

Method for chymotrypsin: CuSO4.5H2O dilutions in 10 mM TRIS buffer pH 7 to 10 mM, 5 mM, 2.5 mM 1.25 mM Benzoyl-Tyrosine p-nitroanilide (BTPNA): 0.5 mg/mL BTPNA in Acetone
Study: • (1) 100 μl buffer (10 mM TRIS, pH=7)+50 μl Chymotrypsin Stock+50 μl BTPNA • (2) 80 μl buffer (10 mM TRIS, pH=7)+20 μl CuSO4 stock (10 mM)+50 μl Chymotrypsin Stock+50 μl BTPNA • (3) 80 μl buffer (10 mM TRIS, pH=7)+20 μl CuSO4 dilut. (5 mM)+50 μl Chymotrypsin Stock+50 μl BTPNA • (4) 80 μl buffer (10 mM TRIS, pH=7)+20 μl CuSO4 stock (2.5 mM)+50 μl Chymotrypsin Stock+50 μl BTPNA • (5) 80 μl buffer (10 mM TRIS, pH=7)+20 μl CuSO4 dilut. (1.25 mM)+50 μl Chymotrypsin Stock+50 μl BTPNA
Final copper concentrations: 1 mM, 0.5 mM, 0.25 mM, 0.125 mM.
10 mM CuSO4 and Copper gluconate stock solution were diluted 1:1 with 10 mM TRIS buffer pH 7
Study: • (1) 100 μl buffer (10 mM TRIS, pH=7)+50 μl Chymotrypsin Stock+50 μl BTPNA • (2) 80 μl buffer (10 mM TRIS, pH=7)+20 μl CuSO4 dil. (5 mM)+50 μl Chymotrypsin Stock+50 μl BTPNA • (3) 80 μl buffer (10 mM TRIS, pH=7)+20 μl Copper gluconate dilut. (5 mM)+50 μl Chymotrypsin Stock+50 μl BTPNA • (4) 100 μl Cu-bisglycinate stock (0.5 mM)+50 μl Chymotrypsin Stock+50 μl BTPNA
10 mM CuSO4 stock solution was diluted 1:1 with 10 mM TRIS Puffer pH 7
Study: • (1) 30 μl buffer (10 mM TRIS, pH=7)+20 μl CuSO4 dil. (5 mM)+100 μl Chymotrypsin Stock: 30 min. incubation, then addition of 50 μl BTPNA • (2) 30 μl buffer (10 mM TRIS, pH=7)+100 μl Chymotrypsin Stock: 30 min. incubation, then addition of 20 μl CuSO4 dil. (5 mM)+50 μl BTPNA
Final copper concentration: 0.5 mM
Iron(II)-bisglycinate solution containing 1.86 mM of iron in 10 mM TRIS buffer pH 7 was prepared
Cu(II)-gluconate solution containing 2.0 mM of copper in 10 mM TRIS buffer pH 7 was prepared
Study: • (1) 100 μl buffer (10 mM TRIS, pH=7)+50 μl Chymotrypsin Stock+50 μl BTPNA • (2) 100 μl iron(II)-bisglycinate+50 μl Chymotrypsin Stock+50 μl BTPNA • (3) 100 μl copper(II)-gluconate+50 μl Chymotrypsin Stock+50 μl BTPNA
Values were corrected (subtraction of blank). Inhibition was calculated by setting the absorption value of (1) at each time-point as 100%.
Iron(II)-bisglycinate solution containing 0.46 mM of iron in 10 mM TRIS buffer pH 7 was prepared
Cu(II)- bisglycinate solution containing 0.46 mM of copper in 10 mM TRIS buffer pH 7 was prepared
Study: • (1) 100 μl buffer (10 mM TRIS, pH=7)+50 μl Chymotrypsin Stock+50 μl BTPNA • (2) 100 μl iron(II)-bisglycinate+50 μl Chymotrypsin Stock+50 μl BTPNA • (3) 100 μl copper(II)-bisglycinate+50 μl Chymotrypsin Stock+50 μl BTPNA
Values were corrected (subtraction of blank). Inhibition (%) was calculated by setting the absorption value of (1) at each time-point as 100% degradation.
Values were corrected (subtraction of blank). pH was confirmed to be pH 7 after the experiment.
0.025 mg/ml Chymotrypsin, 0.05 mg/mL Benzoyl-Tyrosine p-nitroanilide (BTPNA). Lauryl glutamate: 0.25 mg/ml; copper (as copper gluconate): 0.035 mg/ml.
0.025 mg/ml Chymotrypsin, 0.05 mg/mL Benzoyl-Tyrosine p-nitroanilide (BTPNA). Lauryl glutamate: 0.25 mg/ml; iron (as iron gluconate): 0.03 mg/ml.
100 μl 50 mM TRIS pH 7+50 μL Chymotrypsin Stock+50 μL BTPNA Stock
50 μl Beta-cyclodextrin+50 μl 50 mM TRIS pH 7+50 μL Chymotrypsin Stock+50 μL BTPNA Stock
50 μl copper gluconate+50 μl 50 mM TRIS pH 7+50 μL Chymotrypsin Stock+50 μL BTPNA Stock
50 μl copper gluconate+50 μl Beta-cyclodextrin+50 μL Chymotrypsin Stock+50 μL BTPNA Stock
50 μl copper gluconate+50 μl trisodium phosphate+50 μL Chymotrypsin Stock+50 μL BTPNA Stock
50 μl iron gluconate+50 μl trisodium phosphate+50 μL Chymotrypsin Stock+50 μL BTPNA Stock
Experiments were carried out at pH 7 in 50 mM TRIS buffer.

Regarding `O=S(=O)([O-])[O-].[Cu+2]` [Copper sulfate], the inhibition of chymotrypsin entry on chymotrypsin (Example 9, final copper 1, 0.5, 0.25, 0.125 mM, 10 mM TRIS pH 7, FIG. 2) was “inhibits the proteolytic enzyme chymotrypsin in a dose dependent manner”. At chymotrypsin (Example 14, CuSO4, final copper 0.5 mM, 30 min pre-incubation, FIG. 7), the “influence of copper pre-incubation on chymotrypsin activity” value is “increases the chymotrypsin inhibitory activity”. The “Dissolution in aqua purificata” value in data set [1] is “precipitation”. Moreover, the trypsin inhibition entry at trypsin (pH 7) was “strongly inhibited”.

For the molecule `CC[C@H](C)[C@H](NC(=O)[C@H](CCC(=O)O)NC(=O)[C@H](CO)NC(=O)[C@@H](NC(=O)[C@@H](N)CO)C(C)C)C(=O)N[C@@H](CCC(N)=O)C(=O)N[C@@H](CC(C)C)C(=O)N[C@@H](CCSC)C(=O)N[C@@H](Cc1cnc[nH]1)C(=O)N[C@@H](CC(N)=O)C(=O)N[C@@H](CC(C)C)C(=O)NCC(=O)N[C@@H](CCCCN)C(=O)N[C@@H](Cc1cnc[nH]1)C(=O)N[C@@H](CC(C)C)C(=O)N[C@@H](CC(N)=O)C(=O)N[C@@H](CO)C(=O)N[C@@H](CCSC)C(=O)N[C@@H](CCC(=O)O)C(=O)N[C@@H](CCCN=C(N)N)C(=O)N[C@H](C(=O)N[C@@H](CCC(=O)O)C(=O)N[C@@H](Cc1c[nH]c2ccccc12)C(=O)N[C@@H](CC(C)C)C(=O)N[C@@H](CCCN=C(N)N)C(=O)N[C@@H](CCCCN)C(=O)N[C@@H](CCCCN)C(=O)N[C@@H](CC(C)C)C(=O)N[C@@H](CCC(N)=O)C(=O)N[C@@H](CC(=O)O)C(=O)N[C@H](C(=O)N[C@@H](Cc1cnc[nH]1)C(=O)N[C@@H](CC(N)=O)C(=O)N[C@@H](Cc1ccccc1)C(=O)O)C(C)C)C(C)C` [PTH (1-34) s.c., Teriparatide], in data set [2], the F amounted to 100 ± 23%.

In the case of `C[C@@H](O)[C@@H]1NC(=O)[C@H](CCCCN)NC(=O)[C@@H](Cc2c[nH]c3ccccc23)NC(=O)[C@H](Cc2ccccc2)NC(=O)[C@@H](NC(=O)[C@H](N)Cc2ccccc2)CSSC[C@@H](C(=O)N[C@H](CO)[C@@H](C)O)NC1=O` [Reference (s.c.), Octreotide], the “ΔAUC(0-120)” value in data set [3] (OCT formulations 0.4 ml/kg into proximal jejunum, octreotide 0.36 mg/kg, reference s.c., anaesthetized rats) came out at 14126 ± 2727 ng·min/mL. For the same molecule, in data set [3] (Sprague Dawley, rat, in vivo), the bioavailability was found to be 100 ± 19%. In addition, in data set [3] (setting [5]), the Cmax is 148 ± 36 ng/mL and the time to peak (Tmax) is 1.5 h.

With Aprotinin, in data set [4], the increase in mortality is recorded as 64%.

As for Copper gluconate, the Inhibition % on chymotrypsin (0 minutes, metal ion Fe 0.06 mg/ml (0.92 mM), Cu 0.065 mg/ml (1.0 mM), 10 mM TRIS pH 7) came to 0%; at chymotrypsin (15 minutes, metal ion Fe 0.92 mM, Cu 1.0 mM), 82%; at chymotrypsin (30 minutes, metal ion Fe 0.92 mM, Cu 1.0 mM), 84%; at chymotrypsin (45 minutes, metal ion Fe 0.92 mM, Cu 1.0 mM), 82%; on chymotrypsin (60 minutes, metal ion Fe 0.92 mM, Cu 1.0 mM), 79%. Also, the chymotrypsin inhibition result at chymotrypsin (Example 18, stocks: copper gluconate 10 mM, EDTA 5 mM, sodium caprylate 4 mg/ml, pH 7, FIG. 9) was “can inhibit chymotrypsin”; at chymotrypsin (Example 23, lauryl glutamate […], copper […], pH 7, 50 mM TRIS, FIG. 14) it was “can be inhibited”; at chymotrypsin (Example 27, stocks […] copper(II)gluconate, 1 mg/ml beta-cyclodextrin, FIG. 18) it was “can be inhibited”; on chymotrypsin (Example 31, stocks […] copper(II)gluconate, 1.25 mM EDTA, pH 7, 10 mM TRIS, FIG. 22), “can be inhibited”. Besides, the “Dissolution in aqua purificata” value in data set [1] was “Clear yellowish solution”. Moreover, the inhibition of trypsin result against trypsin (Example 10, copper gluconate solutions 100 to 0.078 mg/ml, after 15 minutes, FIG. 3) is “inhibits the proteolytic enzyme trypsin in a dose dependent manner”. For the same molecule, the trypsin inhibition entry was “can be inhibited” at trypsin (setting [6]); “can be inhibited” at trypsin (Example 21, lauryl glutamate […], copper […], pH 7, 50 mM TRIS, FIG. 12); “can be inhibited” at trypsin (Example 28, stocks 1 mg/ml copper(II)gluconate, 1 mg/ml manganese(II)sulfate, pH 7, FIG. 19); “can be inhibited” at trypsin (setting [7]).

Regarding Iron gluconate, on chymotrypsin (Example 24, lauryl glutamate […], iron 0.03 mg/ml, pH 7, 50 mM TRIS, FIG. 15), the chymotrypsin inhibition entry was “can be inhibited”. Also, in data set [1], the “Dissolution in aqua purificata” value was “Clear orange solution”. Besides, the inhibition of trypsin result at trypsin (Example 12, iron gluconate solutions 10 to 0.625 mg/ml, FIG. 5) is reported as “inhibits the proteolytic enzyme trypsin in a dose dependent manner”. Besides, the trypsin inhibition result at trypsin (setting [6]) is on record as “can be inhibited”; on trypsin (Example 22, lauryl-glutamate […], iron 0.03 mg/ml, pH 7, 50 mM TRIS, FIG. 13) it was “can be inhibited”; on trypsin (Example 25, capryl-glucoside […], iron 0.03 mg/ml, pH 7, 50 mM TRIS, FIG. 16), “can be inhibited”; on trypsin (setting [7]), “can be inhibited”.

Source of the values: patent US10905744B2, “Pharmaceutical formulations for the oral delivery of peptide drugs” (Cyprumed GmbH, priority 2015, dated 2021).
